Data taken from ChEMBL document CHEMBL1147461, “Exploration of the P2-P3 SAR of aldehyde cathepsin K inhibitors” (Bioorg Med Chem Lett, 2004).
pIC50: −log10 of the molar value.

Columns and labels:
Cathepsin K = molecular target: T1, Cathepsin K (Homo sapiens, UniProt P43235); test: Inhibitory concentration against recombinant human cathepsin K determined in a fluorescence assay using 10 uM Cbz-Phe-Arg-AMC as substrate
T1 sequence (P43235 whole entry): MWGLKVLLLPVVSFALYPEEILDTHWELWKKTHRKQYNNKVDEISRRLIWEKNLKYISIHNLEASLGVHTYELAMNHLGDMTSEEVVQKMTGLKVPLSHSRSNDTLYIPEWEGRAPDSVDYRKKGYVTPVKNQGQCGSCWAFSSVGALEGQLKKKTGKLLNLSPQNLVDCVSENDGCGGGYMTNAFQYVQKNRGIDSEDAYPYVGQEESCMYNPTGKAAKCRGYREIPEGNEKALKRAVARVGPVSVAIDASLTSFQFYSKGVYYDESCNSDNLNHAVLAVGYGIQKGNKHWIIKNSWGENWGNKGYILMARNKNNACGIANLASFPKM

Cathepsin B = Cathepsin B (Homo sapiens, UniProt P07858); test: Inhibitory concentration against recombinant human cathepsin B was determined in a fluorescence assay using 10 uM Cbz-Phe-Arg-AMC as substrate
Procathepsin L = Procathepsin L (Homo sapiens, UniProt P07711); test: Inhibitory concentration against recombinant human cathepsin L was determined in a fluorescence assay using 5 uM Cbz-Phe-Arg-AMC as substrate
Chain of Procathepsin L (P07711 whole entry): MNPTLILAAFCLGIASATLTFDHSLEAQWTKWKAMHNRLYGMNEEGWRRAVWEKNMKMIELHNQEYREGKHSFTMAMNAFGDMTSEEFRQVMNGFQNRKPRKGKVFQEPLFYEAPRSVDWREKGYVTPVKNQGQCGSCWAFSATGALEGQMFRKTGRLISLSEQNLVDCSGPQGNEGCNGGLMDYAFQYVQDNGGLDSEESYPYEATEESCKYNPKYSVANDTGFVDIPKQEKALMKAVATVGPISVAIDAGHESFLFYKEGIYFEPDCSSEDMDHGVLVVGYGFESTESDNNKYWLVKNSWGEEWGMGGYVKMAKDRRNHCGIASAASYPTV

SMILES	pIC50 (Cathepsin K)	pIC50 (Cathepsin B)	pIC50 (Procathepsin L)
CCCC[C@@H](C=O)NC(=O)OCCc1ccccc1	6.57	–	–
CCCC[C@@H](C=O)NC(=O)OC(C)(C)Cc1ccccc1	7.92	–	–
CCCC[C@@H](C=O)NC(=O)OC(C)(C)Cc1ccccc1Cl	8.51	–	–
CCCC[C@@H](C=O)NC(=O)OC(C)(C)Cc1cccc(-c2ccsc2)c1	8.12	–	–
CCCC[C@@H](C=O)NC(=O)OC1(Cc2ccccc2)CCCC1	–	6.09	5.70
CCCC[C@@H](C=O)NC(=O)O[C@@H](C)Cc1ccccc1	8.74	6.34	6.13
CCCC[C@@H](C=O)NC(=O)OC1(Cc2ccccc2)CCC1	8.62	5.47	5.92
CCCC[C@@H](C=O)NC(=O)O[C@@H](CC)Cc1ccccc1	9.89	7.14	7.82
CCCC[C@@H](C=O)NC(=O)OC(C)(C)Cc1ccc(Cl)cc1	8.34	–	–
CCCC[C@@H](C=O)NC(=O)OC(C)(C)Cc1cccc(OC)c1	8.27	–	–
CCCC[C@@H](C=O)NC(=O)O[C@H](Cc1ccccc1)CC(C)C	8.19	–	–
CCCC[C@@H](C=O)NC(=O)OCCCc1ccccc1	6.22	–	–
CCCC[C@@H](C=O)NC(=O)O[C@@H](CCC)Cc1ccccc1	8.82	–	–
CCCC[C@@H](C=O)NC(=O)OC(CC)(CC)Cc1ccccc1	8.68	5.66	6.96
CCCC[C@@H](C=O)NC(=O)OC1(Cc2ccccc2)CCCCC1	8.70	4.92	5.07
CCCC[C@@H](C=O)NC(=O)O[C@@H](C)CC1CCCCC1	8.57	6.40	6.57
CCCC[C@@H](C=O)NC(=O)OC(C(C)C)C(C)C	9.25	–	–
CCCC[C@@H](C=O)NC(=O)OC(CC(C)C)CC(C)C	8.96	–	–
CCCC[C@@H](C=O)NC(=O)OC(C)(C(C)C)C(C)C	8.33	–	–
CCCC[C@@H](C=O)NC(=O)OC(C)(C)Cc1ccc(OC)cc1	8.54	–	–
CCCC[C@@H](C=O)NC(=O)OC(CC)CC	8.40	–	–
CCCC[C@@H](C=O)NC(=O)OCc1ccccc1	6.27	–	–
CCCC[C@@H](C=O)NC(=O)OC(Cc1ccccc1)Cc1ccccc1	7.15	–	–
CCCC[C@@H](C=O)NC(=O)O[C@H](C)Cc1ccccc1	7.00	–	–
CCCC[C@@H](C=O)NC(=O)OC(CCC)CCC	9.06	–	–
